From US9550775B2, “Substituted triazolopyridines and methods of use thereof” (GENENTECH, INC., priority 2013, dated 2017)

biological target: hNav1.7 (Homo sapiens (Human), UniProt Q15858); assay: Tritiated sulfonamide competitive binding to membranes from cells expressing hNav1.7 and the β1 subunit; details: 100 pM [3H]compound, 18 h, room temperature; inactivated state of NaV1.7 membrane binding; read-out: NaV1.7 Ligand Binding Assay (IC50);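 also: displacement of the tritiated ligand from recombinant cell membranes, read by liquid scintillation counting of filter-bound radioactivity, nonspecific binding defined with 1 µM unlabelled compound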
Sequence (Q15858 other isoform, or with tags, fused parts or gaps): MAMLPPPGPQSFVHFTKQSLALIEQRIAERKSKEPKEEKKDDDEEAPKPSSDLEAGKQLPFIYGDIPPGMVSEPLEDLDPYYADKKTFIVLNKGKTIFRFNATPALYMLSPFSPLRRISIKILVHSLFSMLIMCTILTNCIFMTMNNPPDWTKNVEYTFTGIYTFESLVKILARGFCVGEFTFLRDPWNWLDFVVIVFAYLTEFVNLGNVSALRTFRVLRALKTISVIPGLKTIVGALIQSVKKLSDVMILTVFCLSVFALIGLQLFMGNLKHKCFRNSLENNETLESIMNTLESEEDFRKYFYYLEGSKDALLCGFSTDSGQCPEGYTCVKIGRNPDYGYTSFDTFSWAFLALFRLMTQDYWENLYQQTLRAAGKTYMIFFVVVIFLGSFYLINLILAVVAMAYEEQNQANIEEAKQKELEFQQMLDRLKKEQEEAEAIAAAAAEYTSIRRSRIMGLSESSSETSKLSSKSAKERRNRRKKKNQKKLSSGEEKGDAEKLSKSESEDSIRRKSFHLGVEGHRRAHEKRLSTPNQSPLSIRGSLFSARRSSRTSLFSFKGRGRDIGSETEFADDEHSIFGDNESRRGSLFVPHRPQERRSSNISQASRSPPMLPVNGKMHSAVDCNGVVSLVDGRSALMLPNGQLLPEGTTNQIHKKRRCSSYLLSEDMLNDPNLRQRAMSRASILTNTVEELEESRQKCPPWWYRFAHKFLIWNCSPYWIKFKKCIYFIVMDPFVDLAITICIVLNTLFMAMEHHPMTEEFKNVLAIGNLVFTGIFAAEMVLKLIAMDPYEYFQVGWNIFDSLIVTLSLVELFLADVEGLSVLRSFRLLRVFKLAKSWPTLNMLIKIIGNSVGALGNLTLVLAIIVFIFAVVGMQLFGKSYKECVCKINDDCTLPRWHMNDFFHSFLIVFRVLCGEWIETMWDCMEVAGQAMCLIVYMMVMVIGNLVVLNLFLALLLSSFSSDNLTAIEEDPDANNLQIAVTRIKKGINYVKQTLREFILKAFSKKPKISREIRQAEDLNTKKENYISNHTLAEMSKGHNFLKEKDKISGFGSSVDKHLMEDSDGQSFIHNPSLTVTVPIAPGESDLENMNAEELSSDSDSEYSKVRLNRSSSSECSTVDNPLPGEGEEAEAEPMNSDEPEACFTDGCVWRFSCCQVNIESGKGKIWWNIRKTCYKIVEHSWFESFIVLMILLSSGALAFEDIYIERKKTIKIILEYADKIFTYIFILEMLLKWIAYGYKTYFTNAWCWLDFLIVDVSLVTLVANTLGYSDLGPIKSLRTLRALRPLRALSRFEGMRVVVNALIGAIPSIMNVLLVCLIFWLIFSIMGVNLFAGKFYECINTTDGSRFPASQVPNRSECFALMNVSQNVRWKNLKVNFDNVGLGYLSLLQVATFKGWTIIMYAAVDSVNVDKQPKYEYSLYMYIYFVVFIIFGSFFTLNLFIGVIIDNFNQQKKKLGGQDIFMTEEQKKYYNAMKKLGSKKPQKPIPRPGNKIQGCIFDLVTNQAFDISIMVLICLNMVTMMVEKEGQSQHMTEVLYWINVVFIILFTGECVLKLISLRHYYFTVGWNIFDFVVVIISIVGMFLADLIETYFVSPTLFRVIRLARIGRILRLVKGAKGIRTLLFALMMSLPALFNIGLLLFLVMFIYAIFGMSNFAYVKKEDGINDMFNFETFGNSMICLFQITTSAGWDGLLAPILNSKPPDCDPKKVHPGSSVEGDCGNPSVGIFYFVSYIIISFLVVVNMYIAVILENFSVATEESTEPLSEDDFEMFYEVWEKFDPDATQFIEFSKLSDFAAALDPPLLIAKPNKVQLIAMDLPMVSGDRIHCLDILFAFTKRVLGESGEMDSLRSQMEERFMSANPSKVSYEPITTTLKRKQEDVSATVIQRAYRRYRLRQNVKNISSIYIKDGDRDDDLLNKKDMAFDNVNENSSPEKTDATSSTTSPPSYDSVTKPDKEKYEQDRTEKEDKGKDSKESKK
Sequence (Q07699 19-218 partner): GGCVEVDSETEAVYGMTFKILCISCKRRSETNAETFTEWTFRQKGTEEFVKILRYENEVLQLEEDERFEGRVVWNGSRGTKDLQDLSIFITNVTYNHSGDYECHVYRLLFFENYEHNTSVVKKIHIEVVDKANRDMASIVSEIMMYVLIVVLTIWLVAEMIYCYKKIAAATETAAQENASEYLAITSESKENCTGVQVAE

Question: With `O=S(=O)(Nc1nnc2cc(COc3cc(Cl)cc(OC(F)(F)F)c3)c(C3CC3)cn12)C1CC1` [Example 97, N-(7-((3-chloro-5-(trifluoromethoxy)phenoxy)methyl)-6-cyclopropyl-[1,2,4]triazolo[4,3-a]pyridin-3-yl)cyclopropanesulfonamide] as the compound, how does the IC50 read?
Answer: Its IC50 is 3 nM.

Question: For `CS(=O)(=O)Nc1nnc2cc(OC[C@H]3CC[C@H](C(F)(F)F)CC3)c(C3CC3)cn12` [Example 13, N-(6-cyclopropyl-7-(((trans)-4-(trifluoromethyl)cyclohexyl)-methoxy)-[1,2,4]triazolo[4,3-a]pyridin-3-yl)methanesulfonamide], which IC50 is on record?
Answer: The IC50 was 22.6 nM.

Question: With `CS(=O)(=O)Nc1nnc2cc(OCC3CCCCC3)c(Br)cn12` [Example 61, N-(6-bromo-7-(cyclohexylmethoxy)-[1,2,4]triazolo[4,3-a]pyridin-3-yl)methanesulfonamide] as the compound, how does the IC50 read?
Answer: Its IC50 is 90 nM.

Question: With `C[C@H](c1cc(Cl)cc(Cl)c1)N1CCC(COc2cc3nnc(NS(C)(=O)=O)n3cc2C2CC2)CC1` [Example 119, (R)—N-(6-cyclopropyl-7-((1-(1-(3,5-dichlorophenyl)ethyl)piperidin-4-yl)methoxy)-[1,2,4]triazolo[4,3-a]pyridin-3-yl)methanesulfonamide] as the compound, how does the IC50 read?
Answer: The IC50 was 23 nM.

Question: `C[C@@H](c1cc(Cl)cc(Cl)c1)N1CCC(COc2cc3nnc(NS(=O)(=O)C4CC4)n3cc2C2CC2)CC1` [Example 121] was tested. Which IC50 did it give?
Answer: The IC50 was 12 nM.

Question: With `CC1(C)[C@H]2CC[C@H](COc3cc4nnc(NS(=O)(=O)N5CCC5)n4cc3C3CC3)[C@@H]1C2` [Example 30] as the compound, how does the IC50 read?
Answer: Its IC50 is 6.75 nM.

Question: With `CC1(COc2cc3nnc(NS(=O)(=O)C4CC4)n3cc2C2CC2)CCC(F)(F)CC1` [Example 108, N-(6-cyclopropyl-7-((4,4-difluoro-1-methylcyclohexyl)methoxy)-[1,2,4]triazolo[4,3-a]pyridin-3-yl)cyclopropanesulfonamide] as the compound, how does the IC50 read?
Answer: Its IC50 is 67 nM.

Question: With `C[C@H](c1cc(Cl)cc(Cl)c1)N1CCC(C)(COc2cc3nnc(NS(C)(=O)=O)n3cc2C2CC2)CC1` [Example 118, (R)—N-(6-cyclopropyl-7-((1-(1-(3,5-dichlorophenyl)ethyl)-4-methylpiperidin-4-yl)methoxy)-[1,2,4]triazolo[4,3-a]pyridin-3-yl)methanesulfonamide] as the compound, how does the IC50 read?
Answer: The IC50 was 14 nM.

Question: With `O=S(=O)(Nc1nnc2cc(OCC3CCC4(CC3)CC4)c(C3CC3)cn12)C1CC1` [Example 16, N-(6-cyclopropyl-7-(spiro[2.5]octan-6-ylmethoxy)-[1,2,4]triazolo[4,3-a]pyridin-3-yl)cyclopropanesulfonamide] as the compound, how does the IC50 read?
Answer: Its IC50 is 21.7 nM.

Question: `O=S(=O)(Nc1nnc2cc(COc3ccc(Cl)c(Cl)c3)c(C3CC3)cn12)C1CC1` [Example 94, N-(6-cyclopropyl-7-((3,4-dichlorophenoxy)methyl)-[1,2,4]-triazolo[4,3-a]pyridin-3-yl)cyclopropanesulfonamide] was tested. Which IC50 did it give?
Answer: The IC50 was 7 nM.

Question: For `CC1(C)[C@H]2CC[C@H](COc3cc4nnc(NS(=O)(=O)N5CCC5)n4cc3C3CC3)[C@@H]1C2` [Example 85, N-(6-cyclopropyl-7-(((1S,2S,5S)-6,6dimethylbicyclo [3.1.1]heptan-2-yl)methoxy)-[1,2,4]triazolopyridin-3-yl)azetidine-1-sulfonamide], which IC50 is on record?
Answer: Its IC50 is 7 nM.

Question: For `CC1(COc2cc3nnc(NS(C)(=O)=O)n3cc2C2CC2)CCCCC1` [Example 14, N-(6-cyclopropyl-7-((1-methylcyclohexyl)methoxy)-[1,2,4]-triazolo[4,3-a]pyridin-3-yl)methanesulfonamide], which IC50 is on record?
Answer: The IC50 was 14 nM.

Question: How did the IC50 turn out when `Cc1cc(Cl)cc(OCc2cc3nnc(NS(C)(=O)=O)n3cc2C2CC2)c1` [Example 102, N-(7-((3-chloro-5-methylphenoxy)methyl)-6-cyclopropyl-[1,2,4]triazolo[4,3-a]pyridin-3-yl)methanesulfonamide] was run?
Answer: The IC50 was 7 nM.

Question: For `CCc1cn2c(NS(=O)(=O)N3CCC3)nnc2cc1OCC12CC3CC(CC(C3)C1)C2` [Example 126, N-(7-(adamantan-1-ylmethoxy)-6-ethyl-[1,2,4]triazolo[4,3-a]pyridin-3-yl)azetidine-1-sulfonamide], which IC50 is on record?
Answer: The IC50 was 31 nM.

Question: `O=S(=O)(Nc1nnc2cc(OC3C4CC5CC(C4)CC3C5)c(C3CC3)cn12)C1CC1` (stereo not drawn) [Example 79, N-(7-(adamantan-2-yloxy)-6-cyclopropyl-[1,2,4]triazolo-[4,3-a]pyridin-3-yl)cyclopropanesulfonamide] was tested. Which IC50 did it give?
Answer: The IC50 was 66 nM.

Question: `O=S(=O)(Nc1nnc2cc(COc3ccc(Cl)c(Cl)c3)c(C3CC3)cn12)C1CC1` [Example 39] was tested. Which IC50 did it give?
Answer: The IC50 was 6.83 nM.

Question: Which IC50 does the source give for `CC1(S(=O)(=O)Nc2nnc3cc(COc4cc(Cl)cc(OC(F)(F)F)c4)c(C4CC4)cn23)CC1` [Example 49, N-(7-((3-chloro-5-(trifluoromethoxy)phenoxy)methyl)-6-cyclopropyl-[1,2,4]triazolo[4,3-a]pyridin-3-yl)-1-methylcyclopropane-1-sulfonamide] here?
Answer: Its IC50 is 3.94 nM.

Question: For `CS(=O)(=O)Nc1nnc2cc(OCC3CC4C5CCC(C5)C4C3)c(C3CC3)cn12` [Example 80, N-(6-cyclopropyl-7-(((2s,3aR,4S,7R,7aS)-octahydro-1H-4,7-methanoinden-2-yl)methoxy)-[1,2,4]triazolo[4,3-a]pyridin-3-yl)methanesulfonamide], which IC50 is on record?
Answer: Its IC50 is 5 nM.

Question: `CS(=O)(=O)Nc1nnc2cc(OC[C@H]3CC[C@H](C)CC3)c(Br)cn12` [Example 87] was tested. Which IC50 did it give?
Answer: Its IC50 is 87 nM.

Question: `CS(=O)(=O)Nc1nnc2cc(COc3cc(Cl)cc(OC(F)(F)F)c3)c(C3CC3)cn12` [Example 43, N-(7-((3-chloro-5-(trifluoromethoxy)phenoxy)methyl)-6-cyclopropyl-[1,2,4]triazolo[4,3-a]pyridin-3-yl)methanesulfonamide] was tested. Which IC50 did it give?
Answer: The IC50 was 2.5 nM.

Question: For `O=S(=O)(Nc1nnc2cc(OC3C4CC5CC(C4)CC3C5)c(C3CC3)cn12)C1CC1` (stereo not drawn) [Example 24, N-(7-(adamantan-2-yloxy)-6-cyclopropyl-[1,2,4]triazolo-[4,3-a]pyridin-3-yl)cyclopropanesulfonamide], which IC50 is on record?
Answer: Its IC50 is 65.8 nM.

Question: Which IC50 does the source give for `O=S(=O)(Nc1nnc2cc(OCCC34CC5CC(CC(C5)C3)C4)c(C3CC3)cn12)C1CC1` [Example 77, N-(7-(2-((3r,5r,7r)-adamantan-1-yl)ethoxy)-6-cyclopropyl-[1,2,4]triazolo[4,3-a]pyridin-3-yl)cyclopropanesulfonamide] here?
Answer: The IC50 was 7 nM.

Question: With `CC1(C)[C@H]2CC[C@H](COc3cc4nnc(NS(C)(=O)=O)n4cc3C3CC3)[C@@H]1C2` [Example 28, N-(6-cyclopropyl-7-(((1S,2S,5S)-6,6-dimethylbicyclo[3.1.1]heptan-2-yl)methoxy)-[1,2,4]triazolo[4,3-a]pyridin-3-yl)methanesulfonamide] as the compound, how does the IC50 read?
Answer: Its IC50 is 2.6 nM.

Question: For `CC12CC3(C)CC(C)(C1)CC(COc1cc4nnc(NS(C)(=O)=O)n4cc1C1CC1)(C2)C3` [Example 122, N-(6-cyclopropyl-7-((3,5,7-trimethyladamantan-1-yl)methoxy)-[1,2,4]triazolo[4,3-a]pyridin-3-yl)methanesulfonamide], which IC50 is on record?
Answer: Its IC50 is 2 nM.

Question: `C=C(C)c1cn2c(NS(C)(=O)=O)nnc2cc1OCC12CC3CC(CC(C3)C1)C2` [Example 8, N-(7-(adamantan-1-ylmethoxy)-6-(prop-1-en-2-yl)-[1,2,4]-triazolo[4,3-a]pyridin-3-yl)methanesulfonamide] was tested. Which IC50 did it give?
Answer: Its IC50 is 51.2 nM.

Question: Which IC50 does the source give for `O=S(=O)(Nc1nnc2cc(O[C@@H]3CCCN(Cc4ccc(F)cc4Cl)C3)c(C3CC3)cn12)C1CC1` [Example 113, (R)—N-(7-((1-(2-chloro-4-fluorobenzyl)piperidin-3-yl)oxy)-6-cyclopropyl-[1,2,4]triazolo[4,3-a]pyridin-3-yl)cyclopropanesulfonamide] here?
Answer: The IC50 was 34 nM.

Question: With `C=C(C)c1cn2c(NS(C)(=O)=O)nnc2cc1OCC12CC3CC(CC(C3)C1)C2` [Example 63, N-(7-((3r,5r,7r)-adamantan-1-ylmethoxy)-6-(prop-1-en-2-yl)-[1,2,4]triazolopyridin-3-yl)methanesulfonamide] as the compound, how does the IC50 read?
Answer: Its IC50 is 51 nM.

Question: For `CS(=O)(=O)Nc1nnc2cc(OCC3(C(F)(F)F)CCCC3)c(C3CC3)cn12` [Example 92, N-(6-cyclopropyl-7-((1-(trifluoromethyl)cyclopentyl)methoxy)-[1,2,4]triazolo[4,3-a]pyridin-3-yl)methanesulfonamide], which IC50 is on record?
Answer: The IC50 was 45 nM.

Question: How did the IC50 turn out when `CCc1cn2c(NS(=O)(=O)N3CC(F)C3)nnc2cc1OCC12CC3CC(CC(C3)C1)C2` [Example 15, N-(7-((3r,5r,7r)-adamantan-1-ylmethoxy)-6-ethyl-[1,2,4]triazolo[4,3-a]pyridin-3-yl)-3-fluoroazetidine-1-sulfonamide] was run?
Answer: Its IC50 is 138 nM.

Question: With `CCc1cn2c(NS(=O)(=O)N3CC(F)C3)nnc2cc1OCC12CC3CC(CC(C3)C1)C2` [Example 70, N-(7-((3r,5r,7r)-adamantan-1-ylmethoxy)-6-ethyl-[1,2,4]triazolo[4,3-a]pyridin-3-yl)-3-fluoroazetidine-1-sulfonamide] as the compound, how does the IC50 read?
Answer: Its IC50 is 140 nM.

Question: How did the IC50 turn out when `O=S(=O)(Nc1nnc2cc(COc3cc(Cl)cc(OC(F)(F)F)c3)c(C3CC3)cn12)C1CC1` [Example 42, N-(7-((3-chloro-5-(trifluoromethoxy)phenoxy)methyl)-6-cyclopropyl-[1,2,4]triazolo[4,3-a]pyridin-3-yl)cyclopropanesulfonamide] was run?
Answer: Its IC50 is 2.81 nM.

Question: `CS(=O)(=O)Nc1nnc2cc(OC[C@H]3CC[C@H](C)CC3)c(C3CC3)cn12` [Example 33] was tested. Which IC50 did it give?
Answer: Its IC50 is 18.4 nM.

Question: `CS(=O)(=O)Nc1nnc2cc(OCCC34CC5CC(CC(C5)C3)C4)c(C3CC3)cn12` [Example 76, N-(7-(2-43r,5r,7r)-adamantan-1-yl)ethoxy)-6-cyclopropyl-[1,2,4]triazolo[4,3-a]pyridin-3-yl)methanesulfonamide] was tested. Which IC50 did it give?
Answer: Its IC50 is 9 nM.

Question: For `C[C@@H](c1cc(Cl)cc(Cl)c1)N1CCC(C)(COc2cc3nnc(NS(C)(=O)=O)n3cc2C2CC2)CC1` [Example 117, (S)—N-(6-cyclopropyl-7-((1-(1-(3,5-dichlorophenyl)ethyl)-4-methylpiperidin-4-yl)methoxy)-[1,2,4]triazolo[4,3-a]pyridin-3-yl)methanesulfonamide], which IC50 is on record?
Answer: The IC50 was 13 nM.

Question: With `Cc1cc(Cl)cc(OCc2cc3nnc(NS(=O)(=O)C4CC4)n3cc2C2CC2)c1` [Example 48, N-(7-((3-chloro-5-methylphenoxy)methyl)-6-cyclopropyl-[1,2,4]triazolo[4,3-a]pyridin-3-yl)cyclopropanesulfonamide] as the compound, how does the IC50 read?
Answer: Its IC50 is 6.33 nM.

Question: `CS(=O)(=O)Nc1nnc2cc(OCC3CC4C5CCC(C5)C4C3)c(C3CC3)cn12` (stereo not drawn) [Example 25] was tested. Which IC50 did it give?
Answer: The IC50 was 5.24 nM.
